{"source": "patent US8486693B2", "about": "“Modified dendritic cells having enhanced survival and immunogenicity and related compositions and methods” (Bellicum Pharmaceuticals, Inc., priority 2006, dated 2013)", "molecules": {"B1": {"name": "Akt.KM: kinase-dead mutant (K179M) chimeric Akt (protein, UniProt P31750 1-480, looked up, variant K179M)", "RAC-alpha …": "MNDVAIVKEGWLHKRGEYIKTWRPRYFLLKNDGTFIGYKERPQDVDQRESPLNNFSVAQCQLMKTERPRPNTFIIRCLQWTTVIERTFHVETPEEREEWATAIQTVADGLKRQEEETMDFRSGSPSDNSGAEEMEVSLAKPKHRVTMNEFEYLKLLGKGTFGKVILVKEKATGRYYAMMILKKEVIVAKDEVAHTLTENRVLQNSRHPFLTALKYSFQTHDRLCFVMEYANGGELFFHLSRERVFSEDRARFYGAEIVSALDYLHSEKNVVYRDLKLENLMLDKDGHIKITDFGLCKEGIKDGATMKTFCGTPEYLAPEVLEDNDYGRAVDWWGLGVVMYEMMCGRLPFYNQDHEKLFELILMEEIRFPRTLGPEAKSLLSGLLKKDPTQRLGGGSEDAKEIMQHRFFANIVWQDVYEKKLSPPFKPQVTSETDTRYFDEEFTAQMITITPPDQDDSMECVDSERRPHFPQFSYSASGTA", "modifications": "chimeric"}}, "test_system": "NF-.kappa.B", "assay": "NF-.kappa.B/SEAP reporter assay in Jurkat-TAg cells (Example 10, iAkt)", "format": "cell-based, human", "protocol": "Jurkat-TAg cells in logarithmic-phase growth were electroporated ([…], 250 V; Gene Pulser II (BIO-RAD)) with expression plasmids and the NF-.kappa.B-SEAP reporter plasmid. After 24 hours, transfected cells were stimulated with sub-optimal levels of the phorbol ester PMA (5 ng/ml) along with log dilutions of the heterodimerizing CID, AP22783, and additional treatments. After an additional 24 hours, supernatants were assayed for SEAP activity.\nTwo key requirements for efficient synthetic regulation of a biological event are highly specific conditional dependency and low background. […] Therefore, in order to optimize iAkt, an NF-.kappa.B-responsive secreted alkaline phosphatase (SEAP) reporter plasmid was used as an assay for Akt activation.\nBriefly, the human T cell line, Jurkat-TAg, was cotransfected with reporter plasmid, NF-.kappa.B/SEAP, along with constitutively active M-Akt expression vector or empty control vector. Twenty-four hours after transfection, cells were divided into aliquots that were stimulated with sub-optimal levels (5 ng/ml) of the phorbol ester, PMA, or were untreated. After an additional 24 hours, SEAP activity was measured. Although Akt activity alone was insufficient to induce measurable NF-.kappa.B activity, M-Akt expression potentiated (by 3-4 fold) PKC-induced NF-.kappa.B activity, consistent with multiple reports. […]", "data": [{"molecule": "Cn1cc(C2=C(c3cn(CCCSC(=N)N)c4ccccc34)C(=O)NC2=O)c2ccccc21", "note": "[R0318220]", "values": [{"measurement": "NF-.kappa.B activation by M-Akt plus PKC in presence of inhibitor", "setting": "LY294002 5 μM, wortmannin 1 μM, R0318220 1 μM", "result": "complete inhibition of NF-.kappa.B"}]}, {"molecule": "B1", "values": [{"measurement": "NF-.kappa.B induction on CID (AP22783)-mediated membrane recruitment via M-FRB12", "setting": "5 ng/ml PMA, log dilutions of AP22783", "result": "no detectable effect on NF-.kappa.B induction over PMA alone"}]}]}
